How the values were obtained:
Test in all cases: MIC in microtitre plates (Example 10)
Assay type in all cases: cell-based
Parameters in all cases: unit not given here
Settings in all cases: microtitre plate, 48 hours at 37° C., ≦20% growth
[1] = system: Escherichia coli NCTC 8196 (=EC)
Protocol: (§1) Determination of the Minimum Inhibitory Concentration (MIC Value) in Microtitre Plates Casein/soymeal peptone broth for preparation of pre-cultures of test bacteria and yeast Bacteria: • Pseudomonas aeruginosa CIP A-22 (=PA) • Escherichia coli NCTC 8196 (=EC) • Staphylococcus aureus ATCC 9144 (=SA) • Candida albicans ATCC 10231 (=CA) The test substances are pre-dissolved in dimethyl sulfoxide (DMSO) and tested in a dilution series of 1:2. Bacteria and yeast are cultured overnight in CASO broth. All the test organism suspensions are adjusted to an organism count of 1-5×10^6 CFU/ml using […] sodium chloride solution. The test substances are pre-pipetted into microtitre plates in amounts of 8 μl per well. The pre-adjusted organism suspensions are diluted 1:100 in CASO broth and are added in amounts of 192 μl per well to the test substances. The test batches are incubated for 48 hours at 37° C. The incubation, the growth is determined on the basis of the turbidity of the test batches (optical density) at 620 nm in a microplate reader. The minimum inhibitory concentration (MIC value) is the concentration of substance at which (compared to the growth of the control) an appreciable inhibition of growth (≦20% growth) of the test organisms is observed. Three microtitre plates are used for each test organism and substance concentration. All the substances are tested in duplicate.

[2] = system: Candida albicans ATCC 10231 (=CA)
Protocol: as §1

[3] = system: Pseudomonas aeruginosa CIP A-22 (=PA)
Protocol: as §1

[4] = system: Staphylococcus aureus ATCC 9144 (=SA)
Protocol: as §1

MIC EC [1]	MIC CA [2]	MIC PA [3]	MIC SA [4]	Structure (SMILES)
30	15	>120	15	CCCCCCCCCCCCNc1cc(C)nc(-c2ccc(C)c(F)c2)n1 [compound 95]
30	15	>120	15	CCCCCCCCCCNc1cc(C)nc(-c2ccc(-c3ccccc3)cc2)n1 [compound 96]
15	15	>120	7.5	CCCCCCCCCCNc1cc(C)nc(-c2ccc(-c3ccccc3)cc2)n1 [compound 97]
15	15	>120	15	CCCCCCCCCCNc1cc(C)nc(-c2cccs2)n1 [compound 98]
15	30	>120	15	CCCCCCCCCCNc1cc(C)nc(-c2ccccc2)n1 [compound 99]
15	15	>120	15	CCCCCCCCCCNc1cc(C)nc(-c2ccncc2)n1 [compound 100]
7.5	7.5	>120	7.5	CCCCCCCCCCNc1cc(C)nc(C)n1 [compound 101]
30	15	>120	7.5	CCCCCCCCCCNc1cc(C)nc(-c2cccc(N)c2)n1 [compound 102]
60	30	>120	15	CCCCCCCCCCNc1cc(C)nc(-c2ccc(C)cc2)n1 [compound 103]
7.5	7.5	>120	<3.75	CCCCCCCCCCNc1cc(C)nc(C2CC2)n1 [compound 104]
15	7.5	>120	7.5	CCCCCCCCCCNc1cc(C)nc(C(C)C)n1 [compound 105]
15	15	>120	<3.75	CCCCCCCCCCNc1cc(C)nc(-c2csc(C)n2)n1 [compound 106]
15	15	>120	7.5	CCCCCCCCCCNc1cc(C)nc(-c2ccc(C)c(F)c2)n1 [compound 107]

Continued, compound first:

Structure (SMILES)	MIC EC [1]	MIC CA [2]	MIC PA [3]	MIC SA [4]
CCCCCCCCCCCCNc1cc(C)nc(-c2cccs2)n1 [compound 86]	15	7.5	<120	15
CCCCCCCCCCCCNc1cc(C)nc(-c2ccccc2)n1 [compound 87]	15	7.5	<120	15
CCCCCCCCCCCCNc1cc(C)nc(-c2ccncc2)n1 [compound 88]	15	7.5	<120	15
CCCCCCCCCCCCNc1cc(C)nc(C)n1 [compound 89]	<3.75	<3.75	>120	<3.75
CCCCCCCCCCCCNc1cc(C)nc(-c2cccc(N)c2)n1 [compound 90]	15	<3.75	>120	7.5
CCCCCCCCCCCCNc1cc(C)nc(-c2ccc(C)cc2)n1 [compound 91]	30	15	>120	30
CCCCCCCCCCCCNc1cc(C)nc(C2CC2)n1 [compound 92]	15	7.5	>120	<3.75
CCCCCCCCCCCCNc1cc(C)nc(C(C)C)n1 [compound 93]	15	7.5	>120	<3.75
CCCCCCCCCCCCNc1cc(C)nc(-c2csc(C)n2)n1 [compound 94]	15	7.5	>120	<3.75

Source: patent US7731985B2, “4-aminopyrimidines and their use for the antimicrobial treatment of surfaces” (Ciba Specialty Chemicals Corporation, priority 2002, dated 2010)
